Reference: PMC10603992, “Antimicrobial and Adjuvant Potencies of Di-n-alkyl Substituted Diazalariat Ethers” (Antibiotics, 2023)
≈ marks a conversion by molar mass, not a printed value. Like-named read-outs stand apart in the source and are kept apart here.

Columns and labels:
DH5α E. coli [1] = assay: MIC against DH5α E. coli; type: cell-based; details: Escherichia coli, no additional antimicrobial; MICs in table limited to […]; read-out: Minimum inhibitory concentration against DH5α E. coli
K12 E. coli = assay: MIC against K12 E. coli; type: cell-based; details: Escherichia coli
DH5α E. coli [2] = test system: DH5α E. coli; design: method as in PMID 15858645; details: free bases, previously reported data; cited from earlier work
Escherichia coli = details: administered with ½ MIC of C8LE; earlier work, no reference given; cited from earlier work
[3] = Planar bilayer voltage clamp; details: 70 mV, KCl 450 mM, HEPES 10 mM, pH 7
Text: This compound was therefore converted into its bis(methiodide) to form C11LE•2MeI (8). It is clear from the trace shown that only spiking behavior was observed and a large opening eventually emerged. […] The formation of a large opening in the membrane comports with the expectation of increased permeability. Such an opening is also in accord with the observation (see above) of depolarization of bacterial membranes.
Figure 18 Planar bilayer voltage clamp trace for C11LE•2MeI (8) at 70 mV. Axes: Y = millivolts and X axis = 10 s per section. Conditions: soybean asolectin membrane, KCl (450 mm) buffer solution (HEPES, 10 mm, pH 7).
The planar bilayer experiments were conducted as described previously.

[4] = Turbidimetric solubility limit in MHII or PBS; type: physicochemical; details: DMSO ≤0.5%
Tet^R E. coli = assay: MIC against Tet^R E. coli; type: cell-based
S. aureus 1199B [5] = assay: MIC against S. aureus 1199B; type: cell-based, Staphylococcus aureus; details: MHII media, 90% growth inhibition
S. aureus [6] = assay: MIC against S. aureus under various pH and media conditions; type: cell-based, Staphylococcus aureus
[7] = Dynamic light scattering of C12LE aggregation; type: physicochemical; details: water, in the presence of the antimicrobial or C12LE alone
Experimental: It is known that dialkyldiazacrowns form stable aggregates in aqueous solution [57, 62]. It was hypothesized that complexation between antimicrobials and macrocycles would alter or prevent the ability of the complex to form aggregates. […] Indeed, the particle sizes observed when chlortetracycline is present was almost indistinguishable from particle formation by C12LE (4) alone.
Measurements were performed on a Brookhaven Instruments Corp. ZetaPALS instrument at 25 °C using a 660 nm laser and correlating scattering at 90°. Samples were prepared by initially dissolving the amphiphile in filtered DMSO obtained from ThermoFisher. Next, they were diluted into 1× PBS such that DMSO was fixed at 0.5% in 15 mL sterile conical tubes. 10× PBS was obtained commercially, then diluted 10-fold in MQ H2O. The mixture was vortexed and incubated at room temperature for 2 h, then transferred to a clean quartz cuvette and equilibrated in the instrument for 10 min at 25 °C. Ten measurements consisting of 2 min runs were made on each sample. The average effective diameter was calculated with standard error reported for at least three trials.

[8] = target: T1, NorA efflux pumps in S. aureus 1199B (Staphylococcus aureus, UniProt P0A0J7); assay: Efflux pump inhibition (EthBr accumulation); type: cell-based; design: Efflux pump inhibition (increase in EthBr fluorescence): dose or concentration left out as unconfirmed; details: […] µM compound
T1 construct: Increase in EthBr fluorescence observed by its accumulation in S. aureus 1199B cytosol; endogenous in cells; host or cells: Staphylococcus aureus 1199B (whole bacteria)
Text: An important reason for the choice of S. aureus 1199B for study is that its resistance to norfloxacin is known to result from the presence of the Nor A efflux pump. Efflux pumps require regulated ion balance to function so that exogeneous substances such as antibacterials can effectively be ejected. Ethidium bromide (EthBr) can penetrate bacteria and is detectable by its fluorescence. To the extent that ion homeostasis is disrupted, ion balance is deregulated, and efflux pump function is compromised or inhibited.
Experimental details have been reported in [44].

S. aureus [9] = assay: Membrane depolarization by DiBAC4(3) fluorescence; type: cell-based, Staphylococcus aureus; details: compound at ½ MIC
Experimental: Disruption of ion homeostasis by 1–6 should be apparent in the associated membrane depolarization. […] The dye is readily absorbed by bacteria owing to the negative internal potential. Disruption of ion homeostasis will affect both proton and potassium cation regulation. The internalized, self-quenched dye will be released and increased fluorescence will be observed.
Two types of experiments were performed to assess membrane depolarization. […] If ion homeostasis is affected by the presence of any of these compounds, the fluorescent response should increase as the lariat ether concentration increased.
A second series of experiments was performed to determine the relationship of disrupted ion homeostasis, as reflected in membrane depolarization with cellular vitality (Figure 17). […] Alamar blue (see above) was used to determine cell viability. No depolarization was apparent in the S. aureus control in the absence of a lariat ether or lariat ether derivative. Depolarization was greatest for C10LE•MeI (3). […] We note that the MIC values for S. aureus observed for 2, 3, 5, and 6 were similar.
The membrane depolarization study was conducted as described in [48].

S. aureus 1199B [10] = assay: Growth curves; type: cell-based, Staphylococcus aureus; details: ½ MIC, OD600 over 24 h
Experimental: In the studies above, 1–6 were administered at ½ MIC concentrations. At these concentrations, no toxic effect of the compound on cells was anticipated. In order to confirm the effect of compound concentration on S. aureus viability, growth curves were conducted for each compound. In all cases, S. aureus alone was used as control. For the three C10LE compounds (1–3), 32 µM and 64 µM concentrations of norfloxacin were added to the norfloxacin-resistant S. aureus strain as an additional control. The concentration ranges for each of compounds 1–6 varied with their potencies.
The determination of growth curves was performed against S. aureus 1199B, which is norfloxacin resistant at 32 µM. Norfloxacin was used at 64 µM as a control. The compounds tested were 1–6, C10LE and C12LE and their hydrochlorides and methiodides. S. aureus 1199B was cultured overnight from a single CFU and reduced to OD600 = 0.55 before use. Samples were prepared in LB media to which was added either the norfloxacin control or the combination of norfloxacin and one of the compounds C10LE (1), C10LE•2HCl (2), C10LE•2MeI (3), C12LE (4), C12LE•2HCl (5), or C12LE•2MeI (6). Dimethylsulfoxide (DMSO) was used to solubilize the lariat ether derivative, when necessary, but its concentration was never allowed to exceed 0.5% (v/v) in all experiments. […] The absorbance of each sample (600 nm) was recorded every quarter hour for 24 h.

T1 sequence (P0A0J7 whole entry): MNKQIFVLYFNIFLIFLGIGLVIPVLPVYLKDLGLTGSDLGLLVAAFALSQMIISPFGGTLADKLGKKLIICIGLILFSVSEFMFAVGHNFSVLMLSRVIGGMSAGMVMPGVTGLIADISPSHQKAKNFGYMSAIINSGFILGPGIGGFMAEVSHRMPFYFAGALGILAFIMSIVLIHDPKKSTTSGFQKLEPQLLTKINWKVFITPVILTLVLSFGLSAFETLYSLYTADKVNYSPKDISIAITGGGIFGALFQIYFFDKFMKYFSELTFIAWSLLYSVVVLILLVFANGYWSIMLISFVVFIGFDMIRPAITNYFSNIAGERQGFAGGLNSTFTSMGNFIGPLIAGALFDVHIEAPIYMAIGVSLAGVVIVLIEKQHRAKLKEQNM

CCCCCCCCN1CCOCCOCCN(CCCCCCCC)CCOCCOCC1 [C8LE (7)]
MIC (DH5α E. coli [1]): 206 µM (≈ 100 µg/mL)
MIC (K12 E. coli; read-out: MIC K12 E. coli, MHII media, 90% growth inhibition): 100 µM (≈ 48.7 µg/mL)
Minimum inhibitory concentration against DH5α E. coli (DH5α E. coli [2]): >128 µM
Fold increase in potency of rifampicin against E. coli (Escherichia coli): 20 fold

CCCCCCCCCCC[N+]1(C)CCOCCOCC[N+](C)(CCCCCCCCCCC)CCOCCOCC1 (stereo not drawn) [C11LE•2MeI (8)]
Channel formation in planar bilayer [3]: does not form stable channels

CCCCCCCCCCCCN1CCOCCOCCN(CCCCCCCCCCCC)CCOCCOCC1 [C12LE (4), N,N′-Di-n-dodecyl-4-13-diaza-18-crown-6]
MIC (DH5α E. coli [1]): > 128 µM
solubility at 2 h ([4]; Mueller Hinton II, pH 7.3, 2 h at 37 °C, read-out: Solubility limit in MHII): 16 µM (≈ 9.58 µg/mL)
solubility at 2 h ([4]; phosphate-buffered saline, 2 h at 37 °C, read-out: Solubility limit in PBS): 16 µM (≈ 9.58 µg/mL)
MIC (K12 E. coli; MHII media, 90% growth inhibition, read-out: MIC K12 E. coli): > 128 µM
MIC (Tet^R E. coli; Escherichia coli, read-out: MIC Tet^R E. coli): > 64 µM
MIC Tet^R E. coli (Tet^R E. coli; MHII media, 90% growth inhibition): inactive
MIC S. aureus 1199B (S. aureus 1199B [5]): 32 µM (≈ 19.2 µg/mL)
MIC (S. aureus [6]; MHII, pH 6.4, read-out: MIC S. aureus, MHII pH 6.4): >16 µM
MIC (S. aureus [6]; MHII, pH 7.4, read-out: MIC S. aureus, MHII pH 7.4): >32 µM
Change in MIC as the pH was increased from 6.4 to 8.4 (S. aureus [6]; S. aureus, Mueller Hinton medium): changes in MIC were observed
MIC (S. aureus [6]; Staphylococcus aureus, pH 8.4, MHII, pH 8.4, read-out: MIC S. aureus, MHII pH 8.4): > 64 µM
Slope of C12LE aggregation (DLS particle size) [7]: 2.95
Efflux pump inhibition (increase in EthBr fluorescence) [8]: most potent efflux pump inhibition
Membrane depolarization (DiBAC4(3) fluorescence) (S. aureus [9]): failed to show any significant evidence of membrane depolarization
Effect on bacterial growth (growth curves) (S. aureus 1199B [10]): growth effects were observed at ½ MIC and lower
melting point: 141 to 144 °C
